We go through three compounds from patent US20070032404A1, “Methods for treating diabetes and related disorders using pde10a inhibitors” (Bayer Pharmaceuticals Corporation, priority 2003, published 2007).

One assay has as its target PDE10A (Homo sapiens, UniProt Q9Y233). Kind of assay: PDE10A inhibition assay (SPA, 3H-cAMP). The settings on record: Table 2. It is filed as biochemical. The protocol: (§1) Test compounds and PDE10A enzyme in assay buffer are added to 96-well whitewall/clear bottom isoplates (Wallac). The reaction is initiated by the addition of ^3H-cAMP (Amersham) or ^3H-cGMP (Amersham). Following a 45-minute incubation at room temperature, the reaction is stopped by the addition of SPA yttrium silicate beads (Amersham). The samples are incubated for an additional 30 minutes, and the plates are read in the Microbeta (Wallac) for 30 seconds in the SPA mode. Data may be expressed as a percentage of control. To measure PDE2, PDE3A, PDE4B, and PDE10A activity, 3H-cAMP may be used as a substrate; and to measure PDE5 activity, 3H-cGMP may be used as a substrate.

The target in another assay is PDE3A (Homo sapiens, UniProt Q14432). Kind of assay: PDE3A inhibition assay (SPA, 3H-cAMP). Type of assay: biochemical. The settings on record: Table 2; read-out: PDE3 IC50. The protocol: as §1
(§2) These same compounds were run in inhibition assays for PDE2, PDE3A, PDE4B, and PDE5. […] The compounds are therefore selective for PDE10A.

Assay [1] deals with dispersed pancreatic islets. Briefly: Dispersed islet assay (insulin secretion). Type of assay: cell-based, rat. Particulars: 8 mM glucose, 0.3 μM forskolin, 30 minutes; control = 8 mM glucose and 0.3 μM forskolin. As for the experimental part: Dispersed pancreatic islet isolation. Lean rats (male Sprague-Dawley, 200-250 g) are anesthetized with nembutal (60 mg/kg, i.p.) and the abdomen opened to expose the liver and pancreas. The pancreas is distended by injection of Hank's solution into the bile duct, and then the pancreas is excised and minced with scissors while in Hank's solution. After rinsing the tissue with buffer, the pancreas is digested for 10 minutes with collagenase, rinsed, and the islets separated from debris on a Ficoll gradient. The isolated islet fraction is then rinsed with buffer, incubated with EDTA for 8 minutes, followed by incubation with trypsin and DNAase I for an additional 10 minutes. The dispersed islets are transferred to culture media containing 8 mM glucose, seeded in “V-bottom” 96-well plates (2,500 cells per well), and cultured overnight.
For assaying insulinotropic compounds, the dispersed islets are pre-incubated in 3 mM glucose for 30 minutes. The islets are then transferred to media containing 8 mM glucose, test compounds, and 0.3 μM forskolin; and incubated for an additional 30 minutes. The media is then assayed for insulin content using, for example, a SPA assay. Insulin secretion is reported as fold over control (FOC), where the control is the amount of insulin secretion in the presence of 8 mM glucose and 0.3 μM forskolin.

The next assay deals with PDE2 (Homo sapiens, UniProt O00408). Briefly: PDE2 inhibition assay (SPA, 3H-cAMP). Type of assay: biochemical. Particulars: Table 2. As for the experimental part: as §1, §2
A further assay has as its target PDE5 (Homo sapiens, UniProt O76074). Kind of assay: PDE5 inhibition assay (SPA, 3H-cGMP). The settings on record: Table 2. It is filed as biochemical. As for the experimental part: as §1, §2
Another assay deals with PDE4B (Homo sapiens, UniProt Q07343). Briefly: PDE4B inhibition assay (SPA, 3H-cAMP). Particulars: Table 2. It is filed as biochemical. The protocol: as §1, §2
PDE4B, sequence (Q07343 whole entry, species assumed): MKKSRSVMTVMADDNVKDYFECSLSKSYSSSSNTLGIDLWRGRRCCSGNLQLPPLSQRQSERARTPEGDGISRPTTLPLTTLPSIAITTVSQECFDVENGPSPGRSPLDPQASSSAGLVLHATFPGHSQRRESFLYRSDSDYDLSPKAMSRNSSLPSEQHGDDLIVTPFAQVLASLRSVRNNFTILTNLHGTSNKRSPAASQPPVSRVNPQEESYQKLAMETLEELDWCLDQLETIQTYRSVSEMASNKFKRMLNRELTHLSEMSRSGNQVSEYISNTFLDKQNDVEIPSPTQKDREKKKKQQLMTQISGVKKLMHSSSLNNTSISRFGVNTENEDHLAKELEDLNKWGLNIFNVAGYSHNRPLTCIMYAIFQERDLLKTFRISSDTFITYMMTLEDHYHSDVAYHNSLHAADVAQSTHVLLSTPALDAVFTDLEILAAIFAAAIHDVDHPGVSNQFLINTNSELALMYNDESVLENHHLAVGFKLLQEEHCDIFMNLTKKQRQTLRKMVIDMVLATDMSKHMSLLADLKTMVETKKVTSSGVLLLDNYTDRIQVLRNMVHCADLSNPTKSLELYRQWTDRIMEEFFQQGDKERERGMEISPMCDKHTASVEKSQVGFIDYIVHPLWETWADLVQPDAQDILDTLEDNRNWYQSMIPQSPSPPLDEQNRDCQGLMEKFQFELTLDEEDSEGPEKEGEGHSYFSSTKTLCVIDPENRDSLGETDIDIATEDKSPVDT

PDE3A, sequence (Q14432 whole entry, species assumed): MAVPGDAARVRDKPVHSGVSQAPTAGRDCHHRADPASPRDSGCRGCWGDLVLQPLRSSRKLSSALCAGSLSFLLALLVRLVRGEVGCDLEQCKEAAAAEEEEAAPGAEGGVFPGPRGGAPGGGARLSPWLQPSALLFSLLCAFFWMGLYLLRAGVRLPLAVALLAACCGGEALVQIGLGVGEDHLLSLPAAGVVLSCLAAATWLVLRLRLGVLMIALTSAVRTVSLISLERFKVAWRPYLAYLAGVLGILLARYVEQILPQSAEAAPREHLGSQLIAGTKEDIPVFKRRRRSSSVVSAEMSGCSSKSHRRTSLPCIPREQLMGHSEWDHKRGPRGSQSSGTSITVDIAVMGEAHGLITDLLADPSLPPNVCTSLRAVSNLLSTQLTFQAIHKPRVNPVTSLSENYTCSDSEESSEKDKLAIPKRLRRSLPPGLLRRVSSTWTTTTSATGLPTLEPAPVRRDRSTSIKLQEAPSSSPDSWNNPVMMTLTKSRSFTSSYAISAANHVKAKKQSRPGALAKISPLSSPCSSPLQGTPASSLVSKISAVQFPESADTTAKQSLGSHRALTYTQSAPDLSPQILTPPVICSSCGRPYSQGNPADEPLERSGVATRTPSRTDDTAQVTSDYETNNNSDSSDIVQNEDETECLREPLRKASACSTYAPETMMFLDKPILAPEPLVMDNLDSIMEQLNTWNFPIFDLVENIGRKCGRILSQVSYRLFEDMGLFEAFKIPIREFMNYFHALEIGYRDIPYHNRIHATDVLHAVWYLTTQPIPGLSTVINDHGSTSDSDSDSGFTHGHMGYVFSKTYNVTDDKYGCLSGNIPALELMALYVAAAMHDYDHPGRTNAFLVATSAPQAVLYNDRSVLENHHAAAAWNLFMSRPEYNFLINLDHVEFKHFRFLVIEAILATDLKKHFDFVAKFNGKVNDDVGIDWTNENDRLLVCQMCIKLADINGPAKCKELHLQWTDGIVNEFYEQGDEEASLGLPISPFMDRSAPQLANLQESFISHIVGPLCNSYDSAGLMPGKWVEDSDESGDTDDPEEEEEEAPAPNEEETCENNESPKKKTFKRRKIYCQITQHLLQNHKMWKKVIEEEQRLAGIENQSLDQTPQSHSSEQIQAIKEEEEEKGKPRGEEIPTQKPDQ
PDE10A, sequence (Q9Y233 whole entry, species assumed): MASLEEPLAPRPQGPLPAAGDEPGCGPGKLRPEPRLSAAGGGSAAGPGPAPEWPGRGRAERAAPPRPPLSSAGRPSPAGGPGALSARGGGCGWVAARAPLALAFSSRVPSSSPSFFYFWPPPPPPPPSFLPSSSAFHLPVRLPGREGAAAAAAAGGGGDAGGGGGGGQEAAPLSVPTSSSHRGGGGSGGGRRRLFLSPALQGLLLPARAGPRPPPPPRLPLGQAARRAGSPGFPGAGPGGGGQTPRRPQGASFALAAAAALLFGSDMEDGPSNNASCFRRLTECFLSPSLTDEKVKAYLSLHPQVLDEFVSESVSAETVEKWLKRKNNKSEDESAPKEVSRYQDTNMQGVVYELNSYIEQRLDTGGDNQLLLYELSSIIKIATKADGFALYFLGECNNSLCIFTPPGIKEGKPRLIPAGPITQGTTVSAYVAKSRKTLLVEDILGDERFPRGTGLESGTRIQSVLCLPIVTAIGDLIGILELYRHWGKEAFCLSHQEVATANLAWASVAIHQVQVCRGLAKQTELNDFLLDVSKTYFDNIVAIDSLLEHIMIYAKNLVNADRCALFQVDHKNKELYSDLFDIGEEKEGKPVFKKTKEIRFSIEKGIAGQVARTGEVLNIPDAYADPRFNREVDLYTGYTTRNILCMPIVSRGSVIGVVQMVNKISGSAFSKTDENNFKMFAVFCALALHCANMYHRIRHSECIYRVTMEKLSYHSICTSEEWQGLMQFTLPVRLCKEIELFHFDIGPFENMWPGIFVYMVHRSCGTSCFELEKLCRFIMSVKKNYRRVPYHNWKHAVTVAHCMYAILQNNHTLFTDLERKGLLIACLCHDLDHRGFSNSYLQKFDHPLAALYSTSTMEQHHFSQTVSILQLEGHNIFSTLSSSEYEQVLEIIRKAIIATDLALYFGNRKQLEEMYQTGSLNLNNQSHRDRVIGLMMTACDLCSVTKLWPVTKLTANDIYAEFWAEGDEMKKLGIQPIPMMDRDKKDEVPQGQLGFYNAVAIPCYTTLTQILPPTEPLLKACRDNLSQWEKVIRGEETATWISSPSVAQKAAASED
PDE2, sequence (O00408 whole entry): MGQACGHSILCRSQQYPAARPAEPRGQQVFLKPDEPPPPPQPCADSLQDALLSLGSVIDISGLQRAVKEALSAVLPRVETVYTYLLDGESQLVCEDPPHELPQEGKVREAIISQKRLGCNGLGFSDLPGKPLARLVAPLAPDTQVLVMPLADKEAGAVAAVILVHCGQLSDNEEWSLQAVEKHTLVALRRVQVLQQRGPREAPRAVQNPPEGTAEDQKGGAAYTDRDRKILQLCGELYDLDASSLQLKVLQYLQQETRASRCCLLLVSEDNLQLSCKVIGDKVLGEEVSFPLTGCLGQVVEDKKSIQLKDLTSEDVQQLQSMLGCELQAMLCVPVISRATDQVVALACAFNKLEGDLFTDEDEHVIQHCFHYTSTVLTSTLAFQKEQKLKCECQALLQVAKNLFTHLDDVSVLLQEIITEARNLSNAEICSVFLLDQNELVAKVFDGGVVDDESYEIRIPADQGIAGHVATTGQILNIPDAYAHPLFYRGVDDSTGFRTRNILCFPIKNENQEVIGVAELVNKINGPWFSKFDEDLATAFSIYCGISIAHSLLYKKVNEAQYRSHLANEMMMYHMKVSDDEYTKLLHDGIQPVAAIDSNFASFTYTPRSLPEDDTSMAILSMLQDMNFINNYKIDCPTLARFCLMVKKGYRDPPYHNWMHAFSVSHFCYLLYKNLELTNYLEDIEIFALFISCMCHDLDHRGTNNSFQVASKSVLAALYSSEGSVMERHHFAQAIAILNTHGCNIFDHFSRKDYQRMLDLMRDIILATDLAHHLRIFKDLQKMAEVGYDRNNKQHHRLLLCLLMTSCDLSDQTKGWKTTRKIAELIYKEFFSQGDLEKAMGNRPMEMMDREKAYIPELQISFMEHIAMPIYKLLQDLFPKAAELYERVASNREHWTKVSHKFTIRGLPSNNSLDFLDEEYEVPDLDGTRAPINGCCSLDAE

What is called IC50 is the concentration at which inhibition is half-maximal. Regarding `CCOC(=O)c1c(-c2ccc(O)c3ncccc23)c(C)n2c1-c1cc(OC)c(OC)cc1CC2` [Compound A], the IC50 is 0.03 µM against PDE10A and over 10 µM on PDE3A. Moreover, the “Insulin secretion, Fold-over-Control (FOC)” value in assay [1] is reported as 1.4.
Turning to `CCOC(=O)c1c(-c2ccc(OC)cc2OC)c(C)n2c1-c1cc(OC)c(OC)cc1CC2` [B], the IC50 on PDE10A is 0.0327 µM; at PDE2 it was over 10 µM; on PDE3A it was over 10 µM; against PDE5 it was over 10 µM. Besides, the “Insulin secretion, Fold-over-Control (FOC)” value in assay [1] amounted to 1.44.
Consider `CCOC(=O)c1c(-c2ccc(OC)c(OC)c2)c(C)n2c1-c1cc(OC)c(OC)cc1CC2` [C], for which the IC50 against PDE10A is 0.0263 µM; against PDE2, over 10 µM; on PDE3A it was over 10 µM; at PDE4B, over 10 µM; at PDE5, over 10 µM. For the same compound, in assay [1], the “Insulin secretion, Fold-over-Control (FOC)” value is given as 1.48.
